Reference: paper PMC11035696, “Prospective de novo drug design with deep interactome learning” (Nature Communications, 2024)

Legend:
[1] = Lipophilicity (LogD pH 7.4); type: physicochemical
Protocol: (§1) Compounds 1–3 were characterized in a hybrid reporter gene assay for their agoniztic effect on human nuclear receptors PPARα/γ/δ, RXRα, FXRα, RARα in HEK293T cells. Compound 1 was tested in an isothermal titration calorimetry (ITC) assay to measure direct binding affinity to the ligand-binding domain of PPARγ. ADME properties were measured in standardized assays at Roche.
(§2) SI11Absorption Distribution Metabolism and Excretion and Toxicity Data
(§3) To assess the drug-like characteristics of the newly designed PPAR modulators, a series of tests were conducted covering various aspects of absorption, distribution, metabolism, and excretion (ADME) properties. Specifically, these assessments included the parallel artificial membrane permeability assay (PAMPA) with permeation co- […]
(§4) efficients ([…]), LogD measurements, microsomal clearance, hepatocyte clearance, P-glycoprotein (Pgp) efflux ratio and binding and the unbound free fraction. […]
(§5) Table S14: Absorption distribution metabolism and excretion (ADME) properties of compounds 1 and 2. The […]
(§6) values for […], LogD, protein binding, P-glycoprotein (Pgp) efflux ratio and permeability, and hepato-cyte clearance are presented as the mean and standard deviation, with a sample size of N = 3, i.e., 3 technical replicates each. The values for microsomal clearance and CYP-inhibition represent single point measurements. […]

[2] = Parallel artificial membrane permeability assay (PAMPA); type: in vitro ADME; conditions: read-out: […] permeation coefficient
Protocol: as §1, §2, §3, §4, §5, §6

[3] = Microsomal clearance, human; type: in vitro ADME; conditions: human microsomes, single point measurement
Protocol: as §1, §2, §3
(§7) efficients ([…]), LogD measurements, microsomal clearance, hepatocyte clearance, P-glycoprotein (Pgp) efflux ratio and binding and the unbound free fraction. […] For seven selected CYP proteins (i.e., Cyp3A4, Cyp1A2, Cyp2B6, Cyp2C9, Cyp2D6, Cyp2C19, and Cyp2C8) the half maximal inhibitory con-centration (IC50) was determined. […]
(§8) Compounds 1 and 2 were validated for cytotoxicity on HEK293T cells. Figure S16 depicts the measured cyto-toxicity at two time points (i.e., 16h and 24h), 10 different concentrations (i.e., 0.05 - 20 µM), and 5 different

[4] = Microsomal clearance, mouse; type: in vitro ADME; conditions: mouse microsomes, single point measurement
Protocol: as §1, §2, §3, §7, §8

[5] = Microsomal clearance, rat; type: in vitro ADME; conditions: rat microsomes, single point measurement
Protocol: as §1, §2, §3, §7, §8

## CO[C@@H](Cc1ccc(OCCc2nc(-c3ccccc3)oc2C)c2ccsc12)C(=O)O [aleglitazar]
[1]
  logD: 1.4
[2]
  Papp: 6 ×10⁻⁶ cm/s
[3]
  Microsomal clearance, human: ≥ 10 µL·min−1·mg−1 protein
[4]
  Microsomal clearance, mouse: ≥ 10 µL·min−1·mg−1 protein
[5]
  Microsomal clearance, rat: ≥ 10 µL·min−1·mg−1 protein
